The test system of series [1] is RT-4 cells. As to the kind of experiment: Cell cytotoxicity / apoptosis (Annexin V FITC and PI staining, flow cytometry). Type of series: cell-based, human. Particulars: 1mM HU 20 hours, wash; for late apoptosis: after 2 hours Gem 5µM 8 hours, 72 hours from HU washes; for percentages of apoptotic cells: after 2 hours 10µM MMC 8 hours, 48 hours after HU withdrawal. As to the method: After 24 hours to 5 days from HU washes, cells were stained with Annexin V FITC and PI for identifying apoptotic cells according to standard protocols.
On the technique in general: In flow cytometry, cells or beads pass a laser one at a time.

In series [2] the test system is UMUC-3 cells. As to the kind of experiment: XTT cell viability assay. Particulars: for viability at 1000 µM / EC50: Homo sapiens. Type of series: cell-based, human. As to the method:
Cells were treated with 0-16mM HU/ Control (DMSO or RPMI medium only) for up to 20 hours. […] XTT assay for cytotoxicity was then performed and plates were analyzed in an ELISA reader at wave length of 490nm.
The methods used were as described in the other examples. Briefly, UMUC-3 cells were cultured in 96 well microculture plates. Cells were pretreated with 1mM HU (or DMSO- vehicle control) for 2 hours. […] The percentage of viable cells presented in the figures and table was calculated from untreated cells with viability of 100%.
(In general: Tetrazolium dyes change colour on reduction, which living cells bring about.)

The subject of series [3] is UMUC-3 cells. The series can be described thus: Cell cytotoxicity / apoptosis (Annexin V FITC and PI staining, flow cytometry). To be noted: 1mM HU 20 hours, wash, after 2 hours 10µM MMC 8 hours; 48 hours after HU withdrawal.
The subject of series [4] is UMUC-3 cells. The series can be described thus: Cell cycle distribution (PI staining, flow cytometry). The class given is cell-based, human. As to the method: (§1) A Cyan Flow cytometer was used for determining DNA content and cell cycle distribution of UMUC-3 and RT-4 cells. Cells were seeded in 6 well plates (10^6 cells/well) and incubated overnight. Cells were then cultured with cell cycle modulator (0.1-15mM HU or 0.25µM PD0332991) or with DMSO (vehicle control) for up to 20 hours (HU) or 24 hours (PD0332991). Then, the HU, PD0332991 (or DMSO) was washed and replaced by fresh media and cells were fixed at different time points following washes. The fixation was done by a fixation buffer that purchased from ENCO (Cayman). Minimum 2 hours after the fixation, cells were washed and labeled with propidium iodide (PI) for 15 min in the dark. Cells were analyzed by flow cytometry (PI staining was detected in FL3, […] laser).
(§2) Unless otherwise indicated, methods were as described in Example 1. In order to investigate the influence of HU on cell cycle distribution in bladder cancer cell lines, UMUC-3 and RT-4 cells were treated with 1mM HU (or DMSO for vehicle control) for 20 hours. Cell cycle distribution was observed immediately after HU exposure and 2, 4, 6, 8, and 10 hours following HU withdrawal.

The test system of series [5] is RT-4 cells. The series is described as above. The class given is cell-based, human. Particulars: 1mM HU for 20 hours, 4 hours from HU withdrawal. The protocol:
as §1, §2

Series [6] deals with RT-4 cells. As to the kind of experiment: XTT cell viability assay. Particulars: Homo sapiens, RT-4, read-out: MMC EC50 concentration value. The class given is cell-based.

As a reminder, the viability is a per cent measure of how many cells are alive, often set against a control. Low values mean a greater loss of cells, high ones better survival.

Read-outs that look alike come from different tables or passages of the source.

For the compound `Nc1ccn([C@@H]2O[C@H](CO)[C@@H](O)C2(F)F)c(=O)n1` [Gem, Gemcitabine], the late apoptosis with RT-4 cells [1] is 22.2%. This compound also registered a viability in the series with UMUC-3 cells [2] (1mM HU 20 hours, wash, after 2 hours Gem (EC50) 8 hours) of 50.9%.
In the case of `NC(=O)NO` [HU, Hydroxyurea], the “percentages of apoptotic cells” value in the series with RT-4 cells [1] turned out to be 4.8%; in the series with UMUC-3 cells [3] it was 8.1%. Further, the late apoptosis with RT-4 cells [1] stood at 5.9%. In addition, the viability at 1000 µM in the series with UMUC-3 cells [2] (UMUC3, 1mM HU 20 hours, wash, after 2 hours Gem (EC50) 8 hours) was found to be 71.3%; in the series with UMUC-3 cells [2] (UMUC3, short exposure: 1mM HU 2 hours, 2 hours wash, 20µM MMC 2 hours, analysed after 48 hours), 86.1%. For the same compound, the “percentage of cells at the S phase” value is 57.0% in the series with UMUC-3 cells [4] (1mM HU for 20 hours, 4 hours from HU withdrawal) and 48.6% in the series with RT-4 cells [5]. Besides, the “increase in S phase accumulation” value in the series on UMUC-3 cells [4] (1mM HU for 20 hours, versus DMSO control, 4 hours from HU withdrawal) is on record as “approximately 3 fold”; in the series with RT-4 cells [5] (versus DMSO control), “approximately 6 fold”. For the same compound, the S phase accumulation result with UMUC-3 cells [4] (HU 0.5 to 4mM for 20 hours, 6 hours after the HU wash) is “greater than 50%”. Also, in the series with UMUC-3 cells [4] (HU concentrations lower than 0.1mM), the “influence on cell cycle distribution” value is “no significant influence”.
Take `CO[C@@]12[C@H](COC(N)=O)C3=C(C(=O)C(C)=C(N)C3=O)N1C[C@@H]1N[C@@H]12` [MMC, Mitomycin C]: the EC50 in the series with RT-4 cells [6] was 5 to 20 µM; in the series with UMUC-3 cells [2] (UMUC3, 2 h, read-out: MMC EC50 value), 20 µM; in the series on UMUC-3 cells [2] (UMUC3, read-out: MMC EC50 concentration value), 10 µM. Moreover, the “percentages of apoptotic cells” value is listed as 13.4% in the series with RT-4 cells [1] and 21.4% in the series on UMUC-3 cells [3].

The record behind these values is patent publication EP3498270A1, “SLOW RELEASE FORMULATIONS OF CELL CYCLE REGULATORS AND ANTI-CANCER AGENTS FOR LOCAL TREATMENT OF SOLID CANCER” (Urogen Pharma Ltd., priority 2017, dated 2019).
